Patent US20260008787A1, “FUSED RING KRAS INHIBITORS FOR TREATING DISEASE” (BLOSSOMHILL THERAPEUTICS, INC., priority 2022, published 2026)

How the values were obtained:
[1] = system: GP2D (KRAS G12D); test: Cell proliferation assay (CellTiter-Glo, 72 hours), GP2D; assay type: cell-based; details: 384-well, CellTiter-Glo 2.0
Description: (§1) Two thousand KRAS mutant cells per well were seeded in 384-well white plate and then treated with indicated compounds for 72 hours at 37° C. and 5% CO2. Cell proliferation was measured using CellTiter-Glo 2.0 luciferase-based ATP detection assay (Promega, Madison, WI) following the manufacturer's protocol. IC50 values were determined using Prism software (GraphPad Software, San Diego, CA).

[2] = system: SW620 (KRAS G12V); test: Cell proliferation assay (CellTiter-Glo, 72 hours), SW620; assay type: cell-based; details: 384-well, CellTiter-Glo 2.0
Description: as §1

[3] = molecular target: KRAS G12D (Homo sapiens, UniProt P01116, G12D); test: biochemical
KRAS G12D, sequence (P01116 1-188 isoform P01116-2 G12D): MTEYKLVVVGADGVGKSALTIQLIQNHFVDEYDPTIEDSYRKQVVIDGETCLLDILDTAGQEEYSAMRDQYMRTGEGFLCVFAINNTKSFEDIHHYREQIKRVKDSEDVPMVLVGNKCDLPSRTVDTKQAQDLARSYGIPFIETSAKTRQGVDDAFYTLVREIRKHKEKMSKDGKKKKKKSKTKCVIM

[4] = system: AGS (G12D); test: Cell proliferation assay (CellTiter-Glo, 72 hours), AGS; assay type: cell-based; details: 384-well, CellTiter-Glo 2.0
Description: as §1

[5] = molecular target: KRAS G12V (Homo sapiens, UniProt P01116, G12V); test: biochemical
KRAS G12V, sequence (P01116 1-188 isoform P01116-2 G12V): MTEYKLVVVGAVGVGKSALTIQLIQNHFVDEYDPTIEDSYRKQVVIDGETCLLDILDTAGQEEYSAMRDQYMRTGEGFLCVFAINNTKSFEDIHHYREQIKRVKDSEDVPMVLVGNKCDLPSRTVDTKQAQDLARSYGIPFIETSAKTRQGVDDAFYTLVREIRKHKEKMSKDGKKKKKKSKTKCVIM

Fc1c(-c2c(Cl)ccc3[nH]nc(Cl)c23)nc2c3c(nc(OC[C@@]45CCCN4C[C@H](F)C5)nc13)N1CCCC[C@H]1CO2 (atropisomer, axis not shown) [Example 84, (7S)-12-(3,5-dichloro-1H-indazol-4-yl)-13-fluoro-16-[[(2R,8S)-2-fluoro-1,2,3,5,6,7-hexahydropyrrolizin-8-yl]methoxy]-9-oxa-2,11,15,17-tetrazatetracyclo[8.7.1.02, 7.014,18]octadeca-1 (17),10 (18),11,13,15-pentaene]
IC50 [1]: > 3000 nM | IC50 [2]: > 3000 nM | IC50 [3]: 54.5 nM | IC50 [4]: > 3000 nM | IC50 [5]: 48 nM

Nc1nc2c(-c3nc4c5c(nc(OC[C@@]67CCCN6C[C@H](F)C7)nc5c3F)N3CCCC[C@H]3CO4)ccc(F)c2s1 [Example 40, 7-fluoro-4-[(8aS)-4-fluoro-2-{[(2R,7aS)-2-fluorotetrahydro-1H-pyrrolizin-7a(5H)-yl]methoxy}-8,8a,9,10,11,12-hexahydro-7-oxa-1,3,6,12a-tetraazabenzo[4,5]cyclohepta[1,2,3-de]naphthalen-5-yl]-1,3-benzothiazol-2-amine]
IC50 ([1]; GP2d, 72 h): > 3000 nM | IC50 ([2]; Homo sapiens, SW-620, 72 h): > 3000 nM | IC50 [3]: 30.1 nM | IC50 ([4]; 72 h): > 3000 nM | IC50 [5]: 28.2 nM

Cc1cc(N)nc(-c2nc3c4c(nc(OC[C@@]56CCCN5C[C@H](F)C6)nc4c2F)N2CCCC[C@H]2CO3)c1C(F)(F)F [Example 43, 6-[(8aS)-4-fluoro-2-{[(2R,7aS)-2-fluorotetrahydro-1H-pyrrolizin-7a(5H)-yl]methoxy}-8,8a,9,10,11,12-hexahydro-7-oxa-1,3,6,12a-tetraazabenzo[4,5]cyclohepta[1,2,3-de]naphthalen-5-yl]-4-methyl-5-(trifluoromethyl)pyridin-2-amine]
IC50 ([1]; GP2d, 72 h): 2120 nM | IC50 ([2]; Homo sapiens, SW-620, 72 h): > 3000 nM | IC50 [3]: 16.3 nM | IC50 ([4]; 72 h): > 3000 nM | IC50 [5]: 12.7 nM

C#Cc1c(F)ccc2cc(O)cc(-c3cc4c5c(nc(OC[C@@]67CCCN6C[C@H](F)C7)nc5c3F)N3CCCC[C@H]3CO4)c12 [Example 45, 5-ethynyl-6-fluoro-4-[(8aS)-4-fluoro-2-{[(2R,7aS)-2-fluorotetrahydro-1H-pyrrolizin-7a(5H)-yl]methoxy}-8,8a,9,10,11,12-hexahydropyrido[2′,1′:3,4][1,4]oxazepino[5,6,7-de]quinazolin-5-yl]naphthalen-2-ol]
IC50 ([1]; GP2d, 72 h): 361 nM | IC50 ([2]; Homo sapiens, SW-620, 72 h): 321 nM | IC50 [3]: 3.28 nM | IC50 ([4]; 72 h): 621 nM | IC50 [5]: 2.33 nM

C#Cc1c(F)ccc2cc(O)cc(-c3nc4c5c(nc(OC[C@@]67CCCN6C[C@H](F)C7)nc5c3F)N[C@@H](C)CO4)c12 [Example 46, 5-ethynyl-6-fluoro-4-[(9S)-4-fluoro-2-{[(2R,7aS)-2-fluorotetrahydro-1H-pyrrolizin-7a(5H)-yl]methoxy}-9-methyl-9,10-dihydro-8H-7-oxa-1,3,6,10-tetraazacyclohepta[1,2,3-de]naphthalen-5-yl]naphthalen-2-ol]
IC50 ([1]; GP2d, 72 h): 74.8 nM | IC50 ([2]; Homo sapiens, SW-620, 72 h): 414 nM | IC50 [3]: 2.1 nM | IC50 ([4]; 72 h): 193 nM | IC50 [5]: 1.71 nM

C#Cc1c(F)ccc2cc(O)cc(-c3nc4c5c(nc(OC[C@@]67CCCN6C[C@H](F)C7)nc5c3F)N(C)[C@@H](C)CO4)c12 [Example 50, 5-ethynyl-6-fluoro-4-[(9S)-4-fluoro-2-{[(2R,7aS)-2-fluorotetrahydro-1H-pyrrolizin-7a(5H)-yl]methoxy}-9,10-dimethyl-9,10-dihydro-8H-7-oxa-1,3,6,10-tetraazacyclohepta[1,2,3-de]naphthalen-5-yl]naphthalen-2-ol]
IC50 ([1]; GP2d, 72 h): 8.94 nM | IC50 ([2]; Homo sapiens, SW-620, 72 h): 25.7 nM | IC50 [3]: 1.71 nM | IC50 ([4]; 72 h): 28.4 nM | IC50 [5]: 1.99 nM

C#Cc1c(F)ccc2cc(O)cc(-c3nc4c5c(nc(OC[C@@]67CCCN6C/C(=C\F)C7)nc5c3F)N3CCCC[C@H]3CO4)c12 [Example 52, 5-ethynyl-6-fluoro-4-[(8aS)-4-fluoro-2-{[(2Z,7aS)-2-(fluoromethylidene)tetrahydro-1H-pyrrolizin-7a(5H)-yl]methoxy}-8,8a,9,10,11,12-hexahydro-7-oxa-1,3,6,12a-tetraazabenzo[4,5]cyclohepta[1,2,3-de]naphthalen-5-yl]naphthalen-2-ol]
IC50 ([1]; GP2d, 72 h): 1.75 nM | IC50 ([2]; Homo sapiens, SW-620, 72 h): 9.2 nM | IC50 [3]: 2.26 nM | IC50 ([4]; 72 h): 7.7 nM | IC50 [5]: 2.22 nM

C#Cc1c(F)ccc2cc(O)cc(-c3nc4c5c(nc(OC[C@@]67CCCN6C[C@H](F)C7)nc5c3F)N3[C@@H](COC[C@@H]3C)CO4)c12 [Example 59, 5-ethynyl-6-fluoro-4-[(8aS,12S)-4-fluoro-2-{[(2R,7aS)-2-fluorotetrahydro-1H-pyrrolizin-7a(5H)-yl]methoxy}-12-methyl-8a,9,11,12-tetrahydro-8H-7,10-dioxa-1,3,6,12a-tetraazabenzo[4,5]cyclohepta[1,2,3-de]naphthalen-5-yl]naphthalen-2-ol]
IC50 ([1]; GP2d, 72 h): 12.4 nM | IC50 ([2]; Homo sapiens, SW-620, 72 h): 77.2 nM | IC50 [3]: 2.66 nM | IC50 ([4]; 72 h): 70.6 nM | IC50 [5]: 3.08 nM

C#Cc1c(F)ccc2cc(O)cc(-c3nc4c5c(nc(OC[C@@]67CCCN6C[C@H](F)C7)nc5c3F)N(Cc3ccccc3)[C@@H](C)CO4)c12 [Example 74, 4-[(9S)-10-benzyl-4-fluoro-2-{[(2R,7aS)-2-fluorotetrahydro-1H-pyrrolizin-7a(5H)-yl]methoxy}-9-methyl-9,10-dihydro-8H-7-oxa-1,3,6,10-tetraazacyclohepta[1,2,3-de]naphthalen-5-yl]-5-ethynyl-6-fluoronaphthalen-2-ol]
IC50 ([1]; GP2d, 72 h): 480 nM | IC50 ([2]; Homo sapiens, SW-620, 72 h): 348 nM | IC50 [3]: 4 nM | IC50 ([4]; 72 h): 1480 nM | IC50 [5]: 2.81 nM

CCc1c(F)ccc2cc(O)cc(-c3nc4c5c(nc(OC[C@@]67CCCN6C[C@H](F)C7)nc5c3F)N3CCCC[C@H]3C(C)O4)c12 (stereo partly drawn) [Example 75, 5-ethyl-6-fluoro-4-((5aS)-1-fluoro-11-(((2R,7aS)-2-fluorotetrahydro-1H-pyrrolizin-7a(5H)-yl)methoxy)-5-methyl-5,5a,6,7,8,9-hexahydro-4-oxa-3,9a, 10,12-tetraazabenzo[4,5]cyclohepta[1,2,3-de]naphthalen-2-yl)naphthalen-2-ol]
IC50 ([1]; GP2d, 72 h): 349 nM | IC50 ([2]; Homo sapiens, SW-620, 72 h): 702 nM | IC50 [3]: 1.76 nM | IC50 ([4]; 72 h): 1620 nM | IC50 [5]: 1.6 nM

Fc1c(-c2c(Cl)ccc3[nH]ncc23)nc2c3c(nc(OC[C@@]45CCCN4C[C@H](F)C5)nc13)N1CCCC[C@H]1CO2 [Example 78, (7S)-12-(5-chloro-1H-indazol-4-yl)-13-fluoro-16-[[(2R,8S)-2-fluoro-1,2,3,5,6,7-hexahydropyrrolizin-8-yl]methoxy]-9-oxa-2,11,15,17-tetrazatetracyclo [8.7.1.02,7.014,18]octadeca-1 (17),10 (18),11,13,15-pentaene]
IC50 ([1]; GP2d, 72 h): > 3000 nM | IC50 ([2]; Homo sapiens, SW-620, 72 h): > 3000 nM | IC50 [3]: 40.2 nM | IC50 ([4]; 72 h): > 3000 nM | IC50 [5]: 51.9 nM

C#Cc1c(F)ccc2cc(O)cc(-c3nc4c5c(nc(OCC67CCCN6C/C(=C/F)C7)nc5c3F)N3CCCC[C@H]3CO4)c12 (stereo partly drawn) [Example 79, 5-ethynyl-6-fluoro-4-[(8aS)-4-fluoro-2-{[(2E)-2-(fluoromethylidene)tetrahydro-1H-pyrrolizin-7a(5H)-yl]methoxy}-8,8a,9,10,11,12-hexahydro-7-oxa-1,3,6,12a-tetraazabenzo[4,5]cyclohepta[1,2,3-de]naphthalen-5-yl]naphthalen-2-ol]
IC50 ([1]; GP2d, 72 h): 2.26 nM | IC50 ([2]; Homo sapiens, SW-620, 72 h): 11.2 nM | IC50 [3]: 1.65 nM | IC50 ([4]; 72 h): 3.33 nM | IC50 [5]: 1.69 nM

C#Cc1c(F)ccc2cc(O)cc(-c3nc4c5c(nc(OC[C@@]67CCCN6C[C@H](F)C7)nc5c3F)NCCO4)c12 [Example 82, 5-ethynyl-6-fluoro-4-(4-fluoro-2-{[(2R,7aS)-2-fluorotetrahydro-1H-pyrrolizin-7a(5H)-yl]methoxy}-9,10-dihydro-8H-7-oxa-1,3,6,10-tetraazacyclohepta[1,2,3-de]naphthalen-5-yl)naphthalen-2-ol]
IC50 ([1]; GP2d, 72 h): 470 nM | IC50 ([2]; Homo sapiens, SW-620, 72 h): > 3000 nM | IC50 [3]: 2.64 nM | IC50 ([4]; 72 h): 1440 nM | IC50 [5]: 2.79 nM

N#Cc1c(N)sc2c(F)ccc(-c3nc4c5c(nc(OC[C@@]67CCCN6C[C@H](F)C7)nc5c3F)N3CCCC[C@H]3CO4)c12 [Example 85, 2-amino-7-fluoro-4-[(8aS)-4-fluoro-2-{[(2R,7aS)-2-fluorotetrahydro-1H-pyrrolizin-7a(5H)-yl]methoxy}-8,8a,9,10,11,12-hexahydro-7-oxa-1,3,6,12a-tetraazabenzo[4,5]cyclohepta[1,2,3-de]naphthalen-5-yl]-1-benzothiophene-3-carbonitrile]
IC50 ([1]; GP2d, 72 h): 143 nM | IC50 ([2]; Homo sapiens, SW-620, 72 h): 820 nM | IC50 [3]: 2.35 nM | IC50 ([4]; 72 h): 631 nM | IC50 [5]: 2.17 nM

C#Cc1c(F)ccc2cc(F)cc(-c3nc4c5c(nc(OC[C@@]67CCCN6C[C@H](F)C7)nc5c3F)N3CCCC[C@H]3CO4)c12 [Example 89, (7S)-12-(8-ethynyl-3,7-difluoro-1-naphthyl)-13-fluoro-16-[[(2R,8S)-2-fluoro-1,2,3,5,6,7-hexahydropyrrolizin-8-yl]methoxy]-9-oxa-2,11,15,17-tetrazatetracyclo[8.7.1.02,7.014,18]octadeca-1 (17),10 (18),11,13,15-pentaene]
IC50 ([1]; GP2d, 72 h): 1170 nM | IC50 ([2]; Homo sapiens, SW-620, 72 h): > 3000 nM | IC50 [3]: 3.93 nM | IC50 ([4]; 72 h): > 3000 nM | IC50 [5]: 4.2 nM

C#Cc1c(F)ccc2cc(O)cc(-c3nc4c5c(nc(OC[C@@]67CCCN6C[C@H](F)C7)nc5c3F)N(C)C3(CC3)CO4)c12 [Example 93]
IC50 ([1]; GP2d, 72 h): 140 nM | IC50 ([2]; Homo sapiens, SW-620, 72 h): 981 nM | IC50 [3]: 1.99 nM | IC50 ([4]; 72 h): 560 nM | IC50 [5]: 1.55 nM
